Source: patent US20230146455A1, “TREATMENT OF INFLAMMATORY DISEASES WITH PEPTIDES AND PHARMACEUTICAL COMPOSITIONS” (Yuyu Pharma, Inc., priority 2020, published 2023)
Values joined by “and” are separate entries in the source; they are usually repeats but may differ in a detail not shown here. Equal entries are not always repeated. Where a SMILES comes first, the peptide text is derived from it. [ ]: non-standard residue; d: D form. Hyp = O=C(O)[C@@H]1C[C@@H](O)CN1

How the values were obtained:
[1] = system: IL-10; test: Example 9 Luminex, LPS hPBMCs: IL-10; assay type: cell-based, human; details: for Concentration / conc/live cell (pg/10^5): IL-10
Method: (§1) Treatment Human PBMCs were pretreated with YY-101, YDE-011 and YDE-043 or reference compound; Xiidra® at various concentration (ranging from 1 nM to 100 uM) for 2 h before stimulation. An equal volume of 0.5% DMSO was used as a vehicle control. Then, the cells were treated with LPS at 5 ug/ml. The supernatants from treated cells were harvested at 24 h and placed in a 96 well for Luminex cytokine & chemokine profiling using a Luminex 200 multiplex assay (Luminex; R&D system, USA).
(§2) The main study arm with triplicate wells per group in a 24-well plate: • 1. Blank • 2. PBMC: 0.5% DMSO • 3. PBMC+LPS (5 ug/ml) • 4. PBMC+YY-101 100 uM • 5. PBMC+YY-101 10 uM • 6. PBMC+YY-101 1 uM • 7. PBMC+YY-101 0.1 uM • 8. PBMC+YY-101 0.01 uM • 9. PBMC+LPS (5 ug/ml)+Xiidra®100 uM • 10. PBMC+LPS (5 ug/ml)+Xiidra® 10 uM • 11. PBMC+LPS (5 ug/ml)+Xiidra® 1 uM • 12. PBMC+LPS (5 ug/ml)+Xiidra®0.1 uM • 13. PBMC+LPS (5 ug/ml)+Xiidra®0.01 uM • 14. PBMC+LPS (5 ug/ml)+Xiidra®0.001 uM • 15. PBMC+LPS (5 ug/ml)+YY-101 100 uM • 16. PBMC+LPS (5 ug/ml)+YY-101 10 uM • 17. PBMC+LPS (5 ug/ml)+YY-101 1 uM • 18. PBMC+LPS (5 ug/ml)+YY-101 0.1 uM • 19. PBMC+LPS (5 ug/ml)+YY-101 0.01 uM • 20. PBMC+LPS (5 ug/ml)+YY-101 0.001 uM • 21. PBMC+LPS (5 ug/ml)+YDE-011 100 uM • 22. PBMC+LPS (5 ug/ml)+YDE-011 10 uM • 23. PBMC+LPS (5 ug/ml)+YDE-011 1 uM • 24. PBMC+LPS (5 ug/ml)+YDE-011 0.1 uM • 25. PBMC+LPS (5 ug/ml)+YDE-011 0.01 uM • 26. PBMC+LPS (5 ug/ml)+YDE-011 0.001 uM • 27. PBMC+LPS (5 ug/ml)+YDE-043 100 uM • 28. PBMC+LPS (5 ug/ml)+YDE-043 10 uM • 29. PBMC+LPS (5 ug/ml)+YDE-043 1 uM • 30. PBMC+LPS (5 ug/ml)+YDE-043 0.1 uM • 31. PBMC+LPS (5 ug/ml)+YDE-043 0.01 uM • 32. PBMC+LPS (5 ug/ml)+YDE-043 0.001 uM
(§3) Multiplex assay was used to measure 30 cytokines and chemokines. The 1:2, 1:10 and 1:200 diluted cell supernatant and serial dilution of the standard were dispensed into a 96 well plate at 50 ul/well. Then, the pre-mixed cocktail of antibody-coated magnetic beads was dispensed at 50 ul/well and incubated at room temperature for 2 h in a horizontal orbital microplate shaker at 800±500 rpm. The beads were washed using a magnetic device to prevent loss. The biotin-antibody was dispensed in 50 ul of each well and incubated at room temperature for 1 h in a shaker at 800±500 rpm. After washing, streptavidin-PE was added at 50 ul/well and incubated at room temperature for 30 min in a shaker under the same conditions. Finally, after washing, wash buffer (100 ul/well) was added to the plate and incubated in a shaker for 2 min. The Luminex™ 200 setting were set according to the manufacturer's protocol. The data was calculated with a standard five-parameter logistic nonlinear regression analysis of the data (xPonent software 4.2, USA). The levels of cytokine/chemokine are normalized to the live cell counts (1×10^5 cells/mL) and presented as concentrations per mL (pg/mL or ng/mL).

[2] = system: TIMP-1; test: Example 9 Luminex, LPS hPBMCs: TIMP-1; assay type: cell-based, human; details: PBMC + LPS(5 ug/ml)
Method: as §1, §2, §3

[3] = PBMC + LPS(5 ug/ml) + test article 0.001 uM, Mean
[4] = PBMC + LPS(5 ug/ml) + test article 0.001 uM, single replicates
[5] = PBMC + LPS(5 ug/ml) + test article 0.01 uM, Mean
[6] = PBMC + LPS(5 ug/ml) + test article 0.01 uM, single replicates
[7] = PBMC + LPS(5 ug/ml) + test article 0.1 uM, Mean
[8] = PBMC + LPS(5 ug/ml) + test article 0.1 uM, single replicates
[9] = PBMC + LPS(5 ug/ml) + test article 1 uM, Mean
[10] = PBMC + LPS(5 ug/ml) + test article 1 uM, single replicates
[11] = PBMC + LPS(5 ug/ml) + test article 10 uM, Mean
[12] = PBMC + LPS(5 ug/ml) + test article 10 uM, single replicates
[13] = PBMC + LPS(5 ug/ml) + test article 100 uM, Mean
[14] = PBMC + LPS(5 ug/ml) + test article 100 uM, single replicates
[15] = PBMC + test article 0.01 uM, no LPS, Mean
[16] = PBMC + test article 0.01 uM, no LPS, single replicates
[17] = PBMC + test article 0.1 uM, no LPS, Mean
[18] = PBMC + test article 0.1 uM, no LPS, single replicates
[19] = PBMC + test article 10 uM, no LPS, Mean
[20] = PBMC + test article 10 uM, no LPS, single replicates
[21] = PBMC + test article 100 uM, no LPS, Mean
[22] = PBMC + test article 100 uM, no LPS, single replicates
[23] = test article 0.001 uM, single replicates
[24] = test article 0.01 uM, single replicates

## CC(C)C[C@H](NC(=O)CNC(=O)[C@H](CC(=O)O)NC(=O)[C@H](CCC(N)=O)NC(=O)CNC(=O)[C@@H]1C[C@@H](O)CN1)C(=O)N[C@@H](C)C(=O)NCC(=O)N1CCC[C@H]1C(=O)N[C@@H](CCCCN)C(=O)O [YY-101] (H-[Hyp]GQDGLAGPK-OH; N-terminus and C-terminus assumed)
[1]; [3]
  Concentration: 479.4 pg/mL
  conc/live cell (pg/10^5): 74.9 pg/10^5
[1]; [4]
  Concentration: 501.5 pg/mL and 488.8 pg/mL and 447.9 pg/mL
  conc/live cell (pg/10^5): 88.0 pg/10^5 and 68.9 pg/10^5 and 67.9 pg/10^5
[1]; [5]
  Concentration: 499.9 pg/mL
  conc/live cell (pg/10^5): 81.1 pg/10^5
[1]; [6]
  Concentration: 492.8 pg/mL and 499.5 pg/mL and 507.4 pg/mL
  conc/live cell (pg/10^5): 77.0 pg/10^5 and 83.2 pg/10^5 (2×)
[1]; [7]
  Concentration: 445.6 pg/mL
  conc/live cell (pg/10^5): 76.6 pg/10^5
[1]; [8]
  Concentration: 426.9 pg/mL and 459.4 pg/mL and 450.6 pg/mL
  conc/live cell (pg/10^5): 68.9 pg/10^5 and 88.3 pg/10^5 and 72.7 pg/10^5
[1]; [9]
  Concentration: 519.9 pg/mL
  conc/live cell (pg/10^5): 80.1 pg/10^5
[1]; [10]
  Concentration: 556.7 pg/mL and 484.8 pg/mL and 518.0 pg/mL
  conc/live cell (pg/10^5): 88.4 pg/10^5 and 68.3 pg/10^5 and 83.6 pg/10^5
[1]; [11]
  Concentration: 474.4 pg/mL
  conc/live cell (pg/10^5): 72.3 pg/10^5
[1]; [12]
  Concentration: 464.8 pg/mL and 537.1 pg/mL and 421.4 pg/mL
  conc/live cell (pg/10^5): 77.5 pg/10^5 and 83.9 pg/10^5 and 55.4 pg/10^5
[1]; [13]
  Concentration: 172.4 pg/mL
  conc/live cell (pg/10^5): 29.9 pg/10^5
[1]; [14]
  Concentration: 173.5 pg/mL and 168.6 pg/mL and 175.1 pg/mL
  conc/live cell (pg/10^5): 27.5 pg/10^5 and 27.2 pg/10^5 and 35.0 pg/10^5
[1]; [15]
  Concentration: 4.3 pg/mL
  conc/live cell (pg/10^5): 0.5 pg/10^5
[1]; [16]
  Concentration: 4.3 pg/mL
  conc/live cell (pg/10^5): 0.0 pg/10^5 and 0.9 pg/10^5
[1]; [17]
  Concentration: 4.3 pg/mL
  conc/live cell (pg/10^5): 0.4 pg/10^5
[1]; [18]
  Concentration: 4.3 pg/mL
  conc/live cell (pg/10^5): 0.0 pg/10^5 and 0.7 pg/10^5
[1]; PBMC + test article 1 uM, no LPS, Mean
  conc/live cell (pg/10^5): 0.0 pg/10^5
[1]; PBMC + test article 1 uM, no LPS, single replicates
  conc/live cell (pg/10^5): 0.0 pg/10^5
[1]; [19]
  Concentration: 12.6 pg/mL
  conc/live cell (pg/10^5): 2.0 pg/10^5
[1]; [20]
  Concentration: 23.2 pg/mL and 2.0 pg/mL
  conc/live cell (pg/10^5): 3.6 pg/10^5 and 0.3 pg/10^5
[1]; [21]
  Concentration: 8.2 pg/mL
  conc/live cell (pg/10^5): 0.6 pg/10^5
[1]; [22]
  Concentration: 8.2 pg/mL
  conc/live cell (pg/10^5): 1.3 pg/10^5 and 0.0 pg/10^5
[1]; LPS 5 ug/mL 24 hrs, 100 uM to 1 nM
  LPS-induced IL-10 (in words): significantly reduced
[2]; test article 0.001 uM, Mean
  TIMP-1 Concentration: 2635.9 pg/mL
  TIMP-1 MFI: 1569.7
  TIMP-1 conc/live cell: 411.8 pg/10^5
[2]; [23]
  TIMP-1 Concentration: 2670.8 pg/mL and 2497.3 pg/mL and 2739.7 pg/mL
  TIMP-1 MFI: 1596.0 and 1464.5 and 1648.5
  TIMP-1 conc/live cell: 468.6 pg/10^5 and 351.7 pg/10^5 and 415.1 pg/10^5
[2]; test article 0.01 uM, Mean
  TIMP-1 Concentration: 2651.1 pg/mL
  TIMP-1 MFI: 1581.2
  TIMP-1 conc/live cell: 430.2 pg/10^5
[2]; [24]
  TIMP-1 Concentration: 2636.0 pg/mL and 2552.3 pg/mL and 2765.2 pg/mL
  TIMP-1 MFI: 1569.5 and 1506.0 and 1668.0
